The text below walks through data of PubChem BioAssay (NCI).

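The compound was tested at five concentrations on cells cultured in 96-well plates, with a 48-hour exposure period. The concentration for 50% growth inhibition is given as GI50. TGI: total growth inhibition.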

Some test systems named below: HCC-2998 colon; SR leukemia; SK-OV-3 ovarian; SNB-19 CNS; KM20L2 colon; SK-MEL-28 melanoma; LXFL 529 NSCLC; RPMI-8226 leukemia; XF 498 CNS; DLD-1 colon; DU-145 prostate; BT-549 breast; MDA-N; MCF7 breast.
What all share (assay): inhibition of tumour cell growth, NCI panel, 48 h

As for `O=C(N/N=C/c1cc(Br)cc(Br)c1[O-])c1ccccc1O.O=C(N/N=C/c1cc(Br)cc(Br)c1[O-])c1ccccc1O.[Cl-].[Fe+3]`, the TGI with HCC-2998 colon was found to be 5.65 µM; in the assay on SR leukemia, 5.68 µM; in the assay with SK-OV-3 ovarian, 7.22 µM; with SNB-19 CNS it was 21.3 µM; in the assay on KM20L2 colon, 13.9 µM.
`CCOC(=O)C1=C(C)N2CCCOC2(C)C(C(=O)OC)C1c1cccc([N+](=O)[O-])c1` (stereo not given): the TGI with HCC-2998 colon, in the assay with SK-MEL-28 melanoma, with LXFL 529 NSCLC, in the assay on SR leukemia, with RPMI-8226 leukemia and in the assay with SNB-19 CNS was > 100 µM throughout. In addition, the TGI in the assay with KM20L2 colon is > 100 µM.
Take `C#CCCCCC#CC1CCCC1C1=CC(=O)c2ccccc21` (stereo not given): the TGI with HCC-2998 colon is 25.2 µM; in the assay on XF 498 CNS, 20.8 µM; in the assay with SK-MEL-28 melanoma it was 18.5 µM; in the assay with SR leukemia, > 100 µM; in the assay with RPMI-8226 leukemia it was 6.46 µM; with SK-OV-3 ovarian it was 28.7 µM. Moreover, the TGI was determined as 28.8 µM with SNB-19 CNS, 22 µM in the assay on KM20L2 colon and 24.3 µM with DLD-1 colon.
In the case of `CC(=O)O[C@H]1CC[C@]2(C)[C@H]3C(=O)C=C4[C@@H]5C[C@](C)(C(=O)N6CCCNCC6)CC[C@]5(C)CC[C@@]4(C)[C@]3(C)CC[C@H]2C1(C)C`, the GI50 was 1.85 µM in the assay with SK-MEL-28 melanoma, 1.46 µM in the assay with RPMI-8226 leukemia, 1.87 µM in the assay with SK-OV-3 ovarian and 1.71 µM with DU-145 prostate. Besides, the TGI with SK-MEL-28 melanoma amounted to 3.29 µM; in the assay on RPMI-8226 leukemia, 4.01 µM; in the assay with SK-OV-3 ovarian it was 3.48 µM; in the assay with DU-145 prostate, 3.15 µM.
Regarding `CCCNCC(O)/C=C/[Si](C)(C)C` (stereo not given) (tested in a mixture with another compound), the TGI in the assay on HCC-2998 colon is > 100 µM; in the assay on XF 498 CNS it was 74.8 µM; in the assay with SK-MEL-28 melanoma, > 100 µM; in the assay with LXFL 529 NSCLC, > 100 µM; in the assay on SR leukemia it was > 100 µM; with RPMI-8226 leukemia it was > 100 µM. Moreover, the TGI in the assay on SK-OV-3 ovarian, in the assay with SNB-19 CNS, in the assay with KM20L2 colon and in the assay with DLD-1 colon was > 100 µM in each case.
Consider `CC1(C)[C@@H]2C[C@H]1C(Cc1ccccc1C[C@H]1c3cc(-c4ccccn4)ncc3[C@H]3C[C@@H]1C3(C)C)c1cc(-c3ccccn3)ncc12` (stereo not given in full), for which the TGI in the assay on HCC-2998 colon is 39.8 µM; in the assay with BT-549 breast, > 31.6 µM; in the assay with SK-MEL-28 melanoma, > 100 µM; with SR leukemia, 1.28 µM; with RPMI-8226 leukemia it was 3.33 µM; in the assay with SK-OV-3 ovarian, > 100 µM. Also, the TGI in the assay on MDA-N was > 100 µM; with SNB-19 CNS, > 100 µM; in the assay on DU-145 prostate, > 37.9 µM; in the assay on MCF7 breast it was > 100 µM.
On to `N=C(N)SC1c2ccccc2-c2cc([N+](=O)[O-])ccc21` (stereo not given), for which the TGI in the assay with HCC-2998 colon was found to be 9.84 µM; in the assay with BT-549 breast it was 19.3 µM; in the assay with SK-MEL-28 melanoma, 17.5 µM; with SR leukemia it was 21.9 µM; with RPMI-8226 leukemia, 30.1 µM; in the assay on SK-OV-3 ovarian it was 18.9 µM. Besides, the TGI in the assay with MDA-N stood at 10.9 µM; in the assay with SNB-19 CNS, 14.3 µM; in the assay on DU-145 prostate, 15.9 µM; in the assay on MCF7 breast it was 12.4 µM.
On to `CN(C)CCNc1ccc2nnn3c4ccc(Cl)cc4c(=O)c1c23`, for which the TGI in the assay on HCC-2998 colon was 23.4 µM; in the assay with XF 498 CNS it was 23.8 µM; with BT-549 breast, 34.8 µM; in the assay with SK-MEL-28 melanoma, 18 µM; with LXFL 529 NSCLC it was 19.2 µM; with SR leukemia it was 10.1 µM. The TGI with RPMI-8226 leukemia was determined as 25.4 µM; in the assay with SK-OV-3 ovarian, 35.1 µM; with MDA-N, 16.9 µM; in the assay with SNB-19 CNS, 26.7 µM; in the assay with DU-145 prostate, 26.2 µM; with KM20L2 colon, 16 µM. Besides, the results for the TGI in the assay with DLD-1 colon and in the assay on MCF7 breast were 27.7 µM and 96.2 µM, respectively.
As to `CN[C@@H]1[C@H](O)[C@H](NC)[C@H]2O[C@@]3(O)C(=O)C[C@@H](C)O[C@H]3O[C@@H]2[C@H]1O`, the TGI with HCC-2998 colon, in the assay with BT-549 breast, in the assay with SK-MEL-28 melanoma, with SR leukemia, in the assay on RPMI-8226 leukemia and in the assay with SK-OV-3 ovarian was > 100 µM throughout. For the same molecule, the TGI in the assay on MDA-N, in the assay with SNB-19 CNS, in the assay with DU-145 prostate and in the assay with MCF7 breast was > 100 µM each time.
Take `C[n+]1ccccc1/C=C/c1ccc2c(c1)OCO2`: the TGI in the assay with HCC-2998 colon, with BT-549 breast, in the assay with SK-MEL-28 melanoma, in the assay with SR leukemia, in the assay with RPMI-8226 leukemia and in the assay with SK-OV-3 ovarian was > 10 µM throughout. Moreover, the TGI in the assay with MDA-N, in the assay on SNB-19 CNS, in the assay with DU-145 prostate and in the assay with MCF7 breast was > 10 µM throughout.
With `O=[N+]([O-])/C=C/c1cccc(F)c1`, the TGI in the assay on HCC-2998 colon was found to be 31.6 µM; in the assay on BT-549 breast it was 4.91 µM; in the assay on SK-MEL-28 melanoma it was 5.87 µM; with RPMI-8226 leukemia, 4.14 µM; in the assay with SK-OV-3 ovarian, 28.2 µM; in the assay with MDA-N, 14 µM. Further, the TGI turned out to be 29.7 µM in the assay on SNB-19 CNS, 21.6 µM in the assay on DU-145 prostate and 3 µM with MCF7 breast.
Turning to `CCCCCCc1ccc(O)cc1O`, the TGI is > 100 µM with HCC-2998 colon; > 100 µM in the assay on XF 498 CNS; > 100 µM in the assay on SK-MEL-28 melanoma; > 77 µM with RPMI-8226 leukemia; > 100 µM in the assay on SK-OV-3 ovarian; > 100 µM with SNB-19 CNS. The TGI with KM20L2 colon, in the assay on DLD-1 colon and with MCF7 breast was > 100 µM in each case.
On to `COc1cc2c(cc1OC)C(C1(O)CCCCC1)NCC2` (stereo not given), for which the TGI with HCC-2998 colon, in the assay with XF 498 CNS, with SK-MEL-28 melanoma, with LXFL 529 NSCLC, in the assay on SR leukemia and with RPMI-8226 leukemia was > 100 µM throughout. Also, the TGI in the assay on SK-OV-3 ovarian, in the assay on KM20L2 colon and in the assay with DLD-1 colon was > 100 µM each time.
On to `COc1cc2c(cc1O)CCN[C@@]21CS[C@H]2c3c(OC(C)=O)c(C)c4c(c3C(COC1=O)N1C2C2c3c(cc(C)c(OC)c3O)CC([C@@H]1O)N2C)OCO4` (stereo not given in full), for which the TGI in the assay with XF 498 CNS was < 1e-06 µM; in the assay with BT-549 breast, 0.00987 µM; in the assay with SK-MEL-28 melanoma it was 0.00682 µM; in the assay on LXFL 529 NSCLC, 4.31e-05 µM; in the assay with SR leukemia it was 0.00131 µM; in the assay on MDA-N, 0.0108 µM. Besides, the figures for the TGI in the assay with KM20L2 colon and with DLD-1 colon were 6.01e-05 µM and 0.0013 µM, respectively. In addition, the GI50 in the assay on SK-MEL-28 melanoma was 0.00242 µM; in the assay with SK-OV-3 ovarian it was 0.00246 µM; with MDA-N it was 0.00247 µM; in the assay on DU-145 prostate, 0.00462 µM; with MCF7 breast, 0.000277 µM.
For the molecule `NC(Cc1ccc2oc3cc(=O)c4ccccc4c-3nc2c1)C(=O)O` (stereo not given), the TGI with HCC-2998 colon was 40.2 µM; in the assay with BT-549 breast it was 40.5 µM; in the assay on SK-MEL-28 melanoma, 59 µM; in the assay with LXFL 529 NSCLC it was > 100 µM; in the assay with SR leukemia, 67.6 µM; in the assay on RPMI-8226 leukemia, > 88.3 µM. The TGI was > 100 µM with SK-OV-3 ovarian; 14.8 µM with MDA-N; > 97.7 µM in the assay with SNB-19 CNS; 32 µM in the assay on DU-145 prostate; > 100 µM in the assay with KM20L2 colon; > 66.6 µM in the assay with DLD-1 colon. In the assay with MCF7 breast, this molecule returned a TGI of 11.2 µM.
Take `Cc1c(Cl)c(S(N)(=O)=O)cc(S(N)(=O)=O)c1NC(=O)c1ccc(Cl)cc1`: the TGI in the assay with HCC-2998 colon, with BT-549 breast, in the assay with SK-MEL-28 melanoma, with RPMI-8226 leukemia, in the assay on SK-OV-3 ovarian and in the assay on MDA-N was > 100 µM each time. The TGI with SNB-19 CNS, in the assay with DU-145 prostate and in the assay on MCF7 breast was > 100 µM each time.
